Structures are written as SMILES. Where two headings read alike, the source gives them in different places. Marks after values point to notes of the source that are not given here.

For series [1] the following is noted: humans; cited from earlier work.
Another series relates to athymic (Nude-nu) mice. In words: Resistance to high-dose etoposide (100 mg/kg) in athymic (Nude-nu) mice. The format is in vivo, mouse. To be noted: 100 mg/kg etoposide. As for the experimental part: In other experiments, four-week old female athymic (Nude-nu) mice (Harlan), weighing 20-22 gr were used to evaluate stress resistance after a 48-hour starvation. These animals were i.v.-injected with 100 mg/Kg etoposide and then monitored routinely for weight loss and general behavior.

A further series concerns CD1 mice. In words: Resistance to high-dose etoposide (110 mg/kg) in CD1 mice after 60-hour starvation. The format is in vivo, mouse. The conditions noted are these: 110 mg/Kg etoposide i.v., with or without 60-hour STS.
In series [2] the test system is NXS2 neuroblastoma cells. The conditions noted are these: for No toxicity deaths: deaths / mice.
From the text: The murine NX3IT28 cell line was generated by hybridization of the GD2-negative C1300 murine neuroblastoma cell line (A/J background) with murine dorsal root ganglional cells from […] mice, as previously described. The NXS2 sublime was then created by the selection of NX3IT28 cells with high GD2 expression.
Six-to-seven-week-old female NJ mice, weighing 15-18 g were purchased from Harlan Laboratories (Harlan Italy, S. Pietro al Natisone, Italy) and housed in sterile enclosures under specific virus and antigen-free conditions. All procedures involving mice and their care were reviewed and approved by licensing and ethical committee of the National Cancer Research Institute, Genoa, Italy, and by the Italian Ministry of Health.
(§1) N J mice were pretreated with 1 mg/kg/day doses of human octreotide (OCT, ProSpec-Tany TechnoGene, Rehovot, Israel) for 4 days given slowly through the tail vein in a volume of 100 pl and then injected intravenously with murine neuroblastoma NXS2 cell line (200,000/mouse), as previously described. After tumor cell inoculum, some groups of animals were starved for 48 hours and then i.v. treated with 80 mg/kg of Etoposide Teva (Teva Pharma B.V., Mijdrecht, Holland), administered as a single dose. Additional daily doses of OCT were administered for 4 days after chemotherapy. Control groups of mice without diet starvation and OCT treatment were also investigated.
(§2) To determine toxicity and efficacy, mice were monitored routinely for weight loss and general behavior. […] Survival time was used as the main criterion for determining the efficacy of each treatment.
The statistical significance of differential survival between experimental groups of animals was determined by Kaplan-Meier curves and log-rank […] test by the use of StatDirect statistical software (Camcode, Ashwell, UK).
The murine NX3IT28 cell line was generated by hybridization of the GD2-negative C1300 murine neuroblastoma cell line (A/J background) with murine dorsal root ganglional cells from C57BL/6J mice, as previously described. The NXS2 subline was then created by the selection of NX3IT28 cells with high GD2 expression.
as §1, with “Six-to-seven-week-old female A/J mice, weighing 15-18 g were purchased from Harlan Laboratories (Harlan Italy, S. Pietro al Natisone, Italy) and housed in sterile enclosures under specific virus and antigen-free conditions. All procedures involving mice and their care were reviewed and approved by licensing and ethical committee of the National cancer Research Institute, Genoa, Italy, and by the Italian Ministry of Health. A/J” for “N J”, “μl” for “pl”, “injection,” for “inoculum,”
The statistical significance of differential survival between experimental groups of animals was determined by Kaplan-Meier curves and log-rank (Peto) test by the use of StatDirect statistical software (CamCode, Ashwell, UK). In some experiments, four-week-old female CD1 mice (Harlan), weighing 18-20 g were used to evaluate stress resistance after 60-hour diet starvation. These animals, i.v. injected with 110 mg/kg etoposide, were monitored routinely for weight loss and general behavior. Survival time was used as the main criterion for determining the differential stress resistance after short-term starvation.

Series [3] has as its system LID mice. In words: High-dose etoposide in LID mice. To be noted: 100 mg/kg etoposide i.v.; difference in survival not significant. The format is in vivo, mouse. As for the experimental part: FIG. 21. Resistance to high-dose chemotherapy in LID mice. All mice received an i.v. injection of 100 mg/kg etoposide and were single caged throughout the experiment. The toxicity, evaluated by (A) percent survival and (B) daily weight measurements, are shown. p-value was calculated by log rank test (p=0.06, n=10).

For series [4], the system named is A/J mice. In words: Resistance to high-dose etoposide (80 mg/kg) in A/J mice after STS and/or octreotide. As to the method: as §1, §2
as §1, with “Six-to-seven-week-old female A/J mice, weighing 15-18 g were purchased from Harlan Laboratories (Harlan Italy, S. Pietro al Natisone, Italy) and housed in sterile enclosures under specific virus and antigen-free conditions. All procedures involving mice and their care were reviewed and approved by licensing and ethical committee of the National cancer Research Institute, Genoa, Italy, and by the Italian Ministry of Health. A/J” for “N J”, “μl” for “pl”, “injection,” for “inoculum,”

The next series has as its system mice. The series is described as follows: Octreotide protection of mice against paraquat. The class given is in vivo, mouse. To be noted: octreotide treatment.
Series [5] has as its system NXS2 neuroblastoma cells. The series is described as follows: Effect of octreotide on etoposide cytotoxicity in NXS2 cells, trypan blue. The format is cell-based, mouse. To be noted: 10 or 50 micromolar octreotide, etoposide 1-3 μM, 72 hours. As to the method:
FIG. 8. Survival of neuroblastoma (NXS2)-bearing mice. All mice were inoculated i.v. with 200,000 NXS2 cells/mouse on day 4. The different groups were treated as follows: A) Gr. 1: Control (16 mice)=i.v. inoculation with NSX2 tumor cells on day 4. Gr. 2: Oct (8 mice)=pre-treatment with 1 mg/kg/day octreotide for 4 days before and after tumor injection on day 4. Gr. 3: Oct/STS/Oct (8 mice)=pre-treatment with 1 mg/kg/day Oct before tumor cell injection on day 4+48-hour STS on days 4-6+post-treatment with 1 mg/kg/day Oct on days 8-11. Gr. […] Viability was determined by counting the cells with a contrast phase microscope. The proportion of dead (or living) cells was calculated by dividing the number of dead (or living) cells by the total number of cells per field. […]
NXS2 neuroblastoma cells treated with different concentrations of etoposide (1-3 μM) in presence or absence of octreotide (10 and 50 μM) for 72 hours were harvested by scraping, washed with complete medium, and incubated with trypan blue (0.04%; Sigma; St. Louis, Mo.) for 1 minute at 37° C. The cells were then placed in a Burker chamber (Tecnovetro, Monza Milan, Italy) and counted by viewing with a contrast phase microscope (Olympus Optical Co LTD, Tokyo, Japan). […] The proportion of dead (or living) cells was calculated by dividing the number of dead (or living) cells by the total number of cells per field.

Series [6] deals with A/J mice. The series is described as follows: High-dose doxorubicin toxicity in A/J mice with or without 48-hour STS. The format is in vivo, mouse. As to the method:
FIG. 20. A/J mice, weighing 18-20 g, were starved for 48 hours (STS), and followed by a single intravenous injection of high dose doxorubicin (16 mg/kg). The toxicity, evaluated by (A) percent survival and (B) daily weight measurements, are shown.

In series [7] the test system is LID mice. The series is described as follows: Multiple treatments with doxorubicin in LID mice. The format is in vivo, mouse. The conditions noted are these: doxorubicin 20 mg/kg then 28 mg/kg 22 days later. As to the method:
FIG. 22. Resistance to multiple treatments with doxorubicin. Doxorubicin was intravenously administered at 20 mg/kg on Day 0 and 28 mg/kg on Day 22 (n=5). The toxicity, evaluated by (A) percent survival and (B) daily weight measurements, are shown. p-value was calculated by log rank test (p<0.05).

Where [8] appears, read: Table 1, mice with metastases / mice.
Where [9] appears, read: Table 1, mice with metastases / mice, 200,000 NXS2 cells i.v.
The mark [10] stands for this setting: Table 2, all mice followed until death, necropsy.
Where [11] appears, read: Table 2, early etoposide toxicity deaths not considered.
Where [12] appears, read: Table 2, followed until death, necropsy.

Procedure for CD1 mice: In some experiments, four-week-old female CD1 mice (Harlan), weighing 18-20 g were used to evaluate stress resistance after 60 hours of starvation. These animals, i.v. injected with 110 mg/kg etoposide, were monitored routinely for weight loss and general behavior. Survival time was used as the main criterion for determining the differential stress resistance after short-term starvation.

On to `COc1cc([C@@H]2c3cc4c(cc3[C@@H](O[C@@H]3O[C@@H]5CO[C@@H](C)O[C@H]5[C@H](O)[C@H]3O)[C@H]3COC(=O)[C@H]23)OCO4)cc(OC)c1O` [Eto, etoposide], for which, in [1], the “excreted within 48 hours” value is given as “up to 90%”. For the same compound, in the series with athymic (Nude-nu) mice (nude mice), the “mice killed by etoposide” value is listed as 56% and the “weight change after etoposide” value is recorded as “lost weight”. Moreover, the “mice killed by etoposide” value in the series on CD1 mice is listed as “all”. Further, in the series on NXS2 neuroblastoma cells [2] (NXS2-injected mice without STS), the “day until which mice did not develop tumors” value turned out to be 80 days. In the series on NXS2 neuroblastoma cells [2] (Table 1), the “Median survival (days)” value is 90* days and the “Survival Range” value lay within 87 to 90 days. Also, in the series on NXS2 neuroblastoma cells [2] (Table 1, affected mice / mice), the Hemorrhagic ascites is 1/3*. Also, in the series with NXS2 neuroblastoma cells [2] (setting [8]), the “Adrenal glaud (metastases)” value was 0/3*, the “Kidneys (metastases)” value is 1/3* and the “Ovaries (metastases)” value is 1/3*. The “Liver (metastases)” value in the series on NXS2 neuroblastoma cells [2] (setting [9]) is listed as 1/3*. In addition, in the series on NXS2 neuroblastoma cells [2] (Table 2), the “Survival Range” value lay within 87 to 140 days and the No toxicity deaths was 3/6. For the same compound, the “Liver (metastases)” value with NXS2 neuroblastoma cells [2] (setting [10]) was 3/3. Besides, in the series on NXS2 neuroblastoma cells [2] (setting [11]), the “Median survival” value is recorded as 130 days. Also, in the series with NXS2 neuroblastoma cells [2] (setting [12]), the “Adrenal gland (metastases)” value was 0/3, the Hemorrhagic ascites is recorded as 3/3, the “Kidneys (metastases)” value is reported as 3/3 and the “Ovaries (metastases)” value is 0/3. In addition, the “resistance of LID mice compared to controls” value in the series with LID mice [3] is on record as “less resistant”. In addition, in the series on A/J mice [4] (80 mg/Kg etoposide i.v., A/J mice), the “mice killed by etoposide” value is listed as 43%. Moreover, the “weight lost in the four days after etoposide treatment” value in the series on A/J mice [4] (80 mg/Kg etoposide, control mice) is reported as “approximately 20%”.
In the case of `C[C@@H](O)[C@@H]1NC(=O)[C@H](CCCCN)NC(=O)[C@@H](Cc2c[nH]c3ccccc23)NC(=O)[C@H](Cc2ccccc2)NC(=O)[C@@H](NC(=O)[C@H](N)Cc2ccccc2)CSSC[C@@H](C(=O)N[C@H](CO)[C@@H](C)O)NC1=O` [OCT, octreotide], the “protection of mice against the superoxide generator paraquat” value in the series on mice is recorded as “sufficient to protect”. The mice that died result with athymic (Nude-nu) mice (octreotide co-treatment and/or 48-hour starvation) is reported as “all”. In the series on NXS2 neuroblastoma cells [2] (Table 1), the “Median survival” value amounted to 33 days and the “Survival Range” value was 31 to 37 days. The Hemorrhagic ascites in the series on NXS2 neuroblastoma cells [2] (Table 1, affected mice / mice) is recorded as 8/8. Besides, in the series on NXS2 neuroblastoma cells [2] (setting [8]), the “Adrenal glaud (metastases)” value was 2/8, the “Kidneys (metastases)” value was 8/8 and the “Ovaries (metastases)” value is 8/8. Also, the “Liver (metastases)” value in the series on NXS2 neuroblastoma cells [2] (setting [9]) is listed as 8/8. In addition, in the series on NXS2 neuroblastoma cells [2] (Table 2), the “Survival Range” value is 31 to 37 days and the No toxicity deaths was 0/8. In the series with NXS2 neuroblastoma cells [2] (setting [10]), the “Liver (metastases)” value is 8/8. In addition, the “Median survival” value in the series with NXS2 neuroblastoma cells [2] (setting [11]) worked out at 33 days. Further, in the series on NXS2 neuroblastoma cells [2] (setting [12]), the “Adrenal gland (metastases)” value is listed as 2/8, the Hemorrhagic ascites is 8/8, the “Kidneys (metastases)” value is on record as 8/8 and the “Ovaries (metastases)” value is listed as 8/8. For the same compound, in the series on NXS2 neuroblastoma cells [2] (octreotide alone, absence of short-term starvation), the “protection against NXS2-dependent death” value is on record as “did not protect”. For the same compound, the “sensitization of NXS2 cells to etoposide treatment” value in the series with NXS2 neuroblastoma cells [5] is on record as “did not sensitize”. Moreover, the “protection against etoposide toxicity” value with A/J mice [4] (octreotide alone, mice) is reported as “not sufficient to protect”.
Consider `COc1cccc2c1C(=O)c1c(O)c3c(c(O)c1C2=O)C[C@@](O)(C(=O)CO)C[C@@H]3O[C@H]1C[C@H](N)[C@H](O)[C@H](C)O1` [doxorubicin], for which the survival result with A/J mice [6] (16 mg/Kg doxorubicin i.v. after 48-hour STS (n=5)) is given as “protected all mice”; with LID mice [7] (LID mice) it was “All LID mice survived”. Also, in the series with A/J mice [6] (16 mg/Kg doxorubicin i.v., mice not pre-starved), the lethality entry is “killed all the mice”. The mice that died in the series with LID mice [7] (control mice) was determined as 75%.

These data come from patent US10821177B2, “Induction of differential stress resistance and uses thereof” (University of Southern California, priority 2007, dated 2020).
